# Experimental data published in US9433621B2, “Substituted pyridine and pyrimidine derivatives and their use in treating viral infections” (Merck Sharp & Dohme Corp., priority 2010, dated 2016).
# Tested on: HCV replicon
# Assay: Cell-Based HCV Replicon Assay
# Conditions: Hepatitis C virus; HCV Replicon assay, EC90 given as numeric bound, Table VI; read-out: EC90
# Summary of the method: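 EC50 and EC90 taken from sigmoid fits of ΔCT (5B minus GAPDH) as the concentrations raising ΔCT by 1 and 3.2 over baseline, via multiplex real-time RT-PCR on lysates after 3 days. Replicon cells at 5000/well; 10 two-fold dilutions from 25–1 μM, 0.5% DMSO, 10% FBS.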
row,SMILES,EC90 [µM]
1,Cc1nc(N[C@H](C)c2c(F)c(F)c(C)c(F)c2F)nc(NC2(CO)CCCC2)c1-c1nc2c(C3CC3)nccc2s1 [Example 5128],> 1

# Same assay, conditions: Hepatitis C virus; HCV Replicon assay, EC90 range, Table VI; read-out: EC90
row,SMILES,EC90 [µM]
1,CCCNC(=O)N[C@H]1C[C@@H](Nc2nc(NCc3c(F)cccc3F)nc(C)c2-c2nc3c(C4CC4)nccc3s2)[C@H](O)[C@@H]1O [Example 5085],< 0.5
2,CO[C@H](C)CNc1nc(C)c(-c2nc3c(C4CC4)nccc3s2)c(N[C@@H]2C[C@H](C(N)=O)[C@@H](O)[C@H]2O)n1 [Example 5086],< 0.5
3,CCNC(=O)N[C@H]1C[C@@H](Nc2nc(NCC3CC3)nc(C)c2-c2nc3c(C4CC4)nccc3s2)[C@H](O)[C@@H]1O [Example 5087],< 0.5
4,Cc1nc(NCC2CC2)nc(N[C@@H]2C[C@H](NC(=O)NC(C)(C)C)[C@@H](O)[C@H]2O)c1-c1nc2c(C3CC3)nccc2s1 [Example 5088],< 0.5
5,Cc1nc(N[C@H](C)C2CC2)nc(N[C@@H]2C[C@H](NC(=O)NC(C)(C)C)[C@@H](O)[C@H]2O)c1-c1nc2c(C3CC3)nccc2s1 [Example 5089],< 0.5
6,Cc1nc(N[C@H](C)C2CC2)nc(N[C@@H]2C[C@H](NC(=O)NCc3ccc(C(F)(F)F)cc3)[C@@H](O)[C@H]2O)c1-c1nc2c(C3CC3)nccc2s1 [Example 5090],< 0.5
7,Cc1nc(NC(C)(C)C)nc(N[C@@H]2C[C@H](NC(=O)NC(C)(C)C)[C@@H](O)[C@H]2O)c1-c1nc2c(C3CC3)nccc2s1 [Example 5091],< 0.5
8,Cc1nc(NCC2CC2)nc(N[C@@H]2C[C@H](NC(=O)Nc3ccccc3)[C@@H](O)[C@H]2O)c1-c1nc2c(C3CC3)nccc2s1 [Example 5092],< 0.5
9,Cc1nc(NCC2CC2)nc(N[C@@H]2C[C@H](NC(=O)NC3CCCC3)[C@@H](O)[C@H]2O)c1-c1nc2c(C3CC3)nccc2s1 [Example 5093],< 0.5
10,CCNC(=O)N[C@H]1C[C@@H](Nc2nc(NC(C)(C)C)nc(C)c2-c2nc3c(C4CC4)nccc3s2)[C@H](O)[C@@H]1O [Example 5094],< 0.5
11,Cc1nc(NC(C)(C)C)nc(N[C@@H]2C[C@H](NC(=O)NC3CC3)[C@@H](O)[C@H]2O)c1-c1nc2c(C3CC3)nccc2s1 [Example 5095],< 0.5
12,Cc1nc(N[C@H](C)C2CC2)nc(N[C@@H]2C[C@H](NC(=O)N(C)C)[C@@H](O)[C@H]2O)c1-c1nc2c(C3CC3)nccc2s1 [Example 5096],< 0.5
13,Cc1nc(NC(C)(C)C)nc(N[C@@H]2C[C@H](NC(=O)N(C)C)[C@@H](O)[C@H]2O)c1-c1nc2c(C3CC3)nccc2s1 [Example 5097],< 0.5
14,Cc1nc(NCC2CC2)nc(N[C@@H]2C[C@H](NC(=O)N(C)C)[C@@H](O)[C@H]2O)c1-c1nc2c(C3CC3)nccc2s1 [Example 5098],< 0.5
15,Cc1nc(NCC2CCC2)nc(N[C@@H]2C[C@H](NC(=O)NC(C)(C)C)[C@@H](O)[C@H]2O)c1-c1nc2c(C3CC3)nccc2s1 [Example 5100],< 0.5
16,COC1(CCNc2nc(C)c(-c3nc4c(C)nccc4s3)c(N[C@@H]3C[C@H](C(C)(C)O)[C@@H](O)[C@H]3O)n2)CCCC1 [Example 5101],< 0.5
17,CO[C@@]1(CNc2nc(C)c(-c3nc4c(C)nccc4s3)c(N[C@@H]3C[C@H](C(C)(C)O)[C@@H](O)[C@H]3O)n2)CCOC1 [Example 5102],< 0.5
18,CO[C@@]1(CNc2nc(C)c(-c3nc4c(C)nccc4s3)c(N[C@@H]3C[C@H](C4(O)CCCC4)[C@@H](O)[C@H]3O)n2)CCOC1 [Example 5103],< 0.5
19,COC[C@@H](C)Nc1nc(C)c(-c2nc3c(C)nccc3s2)c(N[C@@H]2C[C@H](C3(O)CCCC3)[C@@H](O)[C@H]2O)n1 [Example 5104],< 0.5

row,SMILES,EC90 [µM]
1,COCCNc1nc(C)c(-c2nc3c(C)nccc3s2)c(N[C@@H]2C[C@H]([C@H](O)C(C)C)[C@@H](O)[C@H]2O)n1 [Example 5105],< 0.5
2,Cc1nc(NCc2cc(F)c(F)cc2F)nc(N[C@@H]2C[C@H]([C@H](O)C(C)C)[C@@H](O)[C@H]2O)c1-c1nc2c(C)nccc2s1 [Example 5106],< 0.5
3,Cc1nc(N)nc(N[C@@H]2C[C@H](C3(O)CCCC3)[C@@H](O)[C@H]2O)c1-c1nc2c(C)nccc2s1 [Example 5107],< 0.5
4,Cc1nc(NC2(C3CCCC3)CC2)nc(N[C@@H]2C[C@H]([C@H](O)C(C)C)[C@@H](O)[C@H]2O)c1-c1nc2c(C)nccc2s1 [Example 5108],< 0.5
5,Cc1nc(NCC2(O)CCCC2)nc(N[C@@H]2C[C@H](C3(O)CCCC3)[C@@H](O)[C@H]2O)c1-c1nc2c(C)nccc2s1 [Example 5110],< 0.5
6,Cc1nc(NCC2(O)CC2)nc(N[C@@H]2C[C@H](C3(O)CCCC3)[C@@H](O)[C@H]2O)c1-c1nc2c(C)nccc2s1 [Example 5111],< 0.5
7,CCO[C@H]1C[C@H](CNc2nc(C)c(-c3nc4c(C)nccc4s3)c(N[C@@H]3C[C@H](C4(O)CCCC4)[C@@H](O)[C@H]3O)n2)C1 [Example 5112],< 0.5
8,Cc1nc(NCC(F)(F)C(F)(F)C(F)(F)F)nc(N[C@@H]2C[C@H](C3(O)CCCC3)[C@@H](O)[C@H]2O)c1-c1nc2c(C)nccc2s1 [Example 5113],5 to 25
9,Cc1nc(NCC(F)(F)C(F)(F)F)nc(N[C@@H]2C[C@H](C3(O)CCCC3)[C@@H](O)[C@H]2O)c1-c1nc2c(C)nccc2s1 [Example 5114],< 0.5
10,Cc1nc(NCC2(O)CCOC2)nc(N[C@@H]2C[C@H](C3(O)CCCC3)[C@@H](O)[C@H]2O)c1-c1nc2c(C)nccc2s1 (stereo partly shown) [Example 5115],< 0.5
11,Cc1nc(NCC(F)(F)F)nc(NC2(CO)CCCC2)c1-c1nc2c(C)nccc2s1 [Example 5116],< 0.5
12,Cc1nc(NCc2c(F)cccc2F)nc(NC2(CO)CCCC2)c1-c1nc2c(C)nccc2s1 [Example 5117],< 0.5
13,Cc1nc(NCC2(O)CC2)nc(N[C@@H]2C[C@H](CS(=O)(=O)c3cc(F)cc(F)c3)[C@@H](O)[C@H]2O)c1-c1nc2c(C)nccc2s1 [Example 5118],< 0.5
14,Cc1nc(NCC2(O)CCCC2)nc(N[C@@H]2C[C@H](CS(=O)(=O)c3cc(F)cc(F)c3)[C@@H](O)[C@H]2O)c1-c1nc2c(C)nccc2s1 [Example 5119],< 0.5
15,Cc1nc(NCCC2(O)CCCC2)nc(N[C@@H]2C[C@H](CS(=O)(=O)c3cc(F)cc(F)c3)[C@@H](O)[C@H]2O)c1-c1nc2c(C)nccc2s1 [Example 5120],< 0.5
16,Cc1nc(NC2(C3CC3)CC2)nc(NC2(CO)CCCC2)c1-c1nc2c(C)nccc2s1 [Example 5121],< 0.5
17,Cc1nc(NC2(C3CC3)CC2)nc(N[C@@H]2C[C@H]([C@@H](O)C(C)C)[C@@H](O)[C@H]2O)c1-c1nc2c(C)nccc2s1 [Example 5122],< 0.5
18,COCCNc1nc(C)c(-c2nc3c(C)nccc3s2)c(N[C@@H]2C[C@H]([C@@H](O)C(C)C)[C@@H](O)[C@H]2O)n1 [Example 5123],< 0.5
19,Cc1nc(N)nc(NC2(CO)CCCC2)c1-c1nc2c(C3CC3)nccc2s1 [Example 5124],< 0.5

row,SMILES,EC90 [µM]
1,Cc1nc(N)nc(N[C@@H]2C[C@H]([C@@H](O)C(C)C)[C@@H](O)[C@H]2O)c1-c1nc2c(C)nccc2s1 [Example 5125],< 0.5
2,COCCNc1nc(C)c(-c2nc3c(C4CC4)nccc3s2)c(NC2(CO)CCCC2)n1 [Example 5126],< 0.5
3,Cc1nc(NCC2(O)CCCC2)nc(NC2(CO)CCCC2)c1-c1nc2c(C3CC3)nccc2s1 [Example 5127],< 0.5
4,Cc1nc(NCC(F)(F)C(F)(F)F)nc(NC2(CO)CCCC2)c1-c1nc2c(C3CC3)nccc2s1 [Example 5129],< 0.5
5,Cc1nc(N)nc(NC2(CO)CCCC2)c1-c1nc2c(C)nccc2s1 [Example 5130],< 0.5
6,COCCNc1nc(C)c(-c2nc3c(C)nccc3s2)c(NC2(CO)CCCC2)n1 [Example 5131],< 0.5
7,Cc1nc(NCC2CC2)nc(NC2(CO)CCCC2)c1-c1nc2c(C)nccc2s1 [Example 5132],< 0.5
8,Cc1nc(NCC2(O)CCCC2)nc(NC2(CO)CCCC2)c1-c1nc2c(C)nccc2s1 [Example 5133],< 0.5
9,Cc1nc(NCC(F)(F)C(F)(F)F)nc(NC2(CO)CC2)c1-c1nc2c(C)nccc2s1 [Example 5134],< 0.5
10,CO[C@@H](CNc1nc(C)c(-c2nc3c(C)nccc3s2)c(N[C@@H]2C[C@H](C(C)(C)O)[C@@H](O)[C@H]2O)n1)c1ccccc1 [Example 5135],< 0.5
11,CO[C@H]1CCCC[C@@H]1Nc1nc(C)c(-c2nc3c(C)nccc3s2)c(N[C@@H]2C[C@H](CO)[C@@H](O)[C@H]2O)n1 [Example 5136],< 0.5
12,CO[C@H]1CCCC[C@@H]1Nc1nc(C)c(-c2nc3c(C)nccc3s2)c(N[C@@H]2C[C@H](C(C)(C)O)[C@@H](O)[C@H]2O)n1 [Example 5137],0.5 to 5
13,CO[C@H]1CCCC[C@@H]1Nc1nc(C)c(-c2nc3c(C4CC4)nccc3s2)c(N[C@@H]2C[C@H](CO)[C@@H](O)[C@H]2O)n1 [Example 5138],< 0.5
14,CO[C@@H]1CCCC[C@H]1Nc1nc(C)c(-c2nc3c(C)nccc3s2)c(N[C@@H]2C[C@H](CO)[C@@H](O)[C@H]2O)n1 [Example 5139],< 0.5
15,CO[C@@H]1CCCC[C@H]1Nc1nc(C)c(-c2nc3c(C)nccc3s2)c(N[C@@H]2C[C@H](C(C)(C)O)[C@@H](O)[C@H]2O)n1 [Example 5140],< 0.5
16,CO[C@@H]1CCCC[C@H]1Nc1nc(C)c(-c2nc3c(C4CC4)nccc3s2)c(N[C@@H]2C[C@H](CO)[C@@H](O)[C@H]2O)n1 [Example 5141],< 0.5
17,CO[C@@H]1CCC[C@@H]1Nc1nc(C)c(-c2nc3c(C4CC4)nccc3s2)c(N[C@@H]2C[C@H](CO)[C@@H](O)[C@H]2O)n1 [Example 5142],< 0.5
18,CO[C@@H]1CCC[C@@H]1Nc1nc(C)c(-c2nc3c(C)nccc3s2)c(N[C@@H]2C[C@H](CO)[C@@H](O)[C@H]2O)n1 [Example 5143],< 0.5
19,CO[C@@H]1CCC[C@@H]1Nc1nc(C)c(-c2nc3c(C)nccc3s2)c(N[C@@H]2C[C@H](C(C)(C)O)[C@@H](O)[C@H]2O)n1 [Example 5144],0.5 to 5
